Common to all, as to format: functional, Stomach
Experiment [1] has as its system Mus musculus. Briefly: Gastroprotective activity in Swiss albino mouse assessed as reduction in HCl/EtOH-induced gastric lesions at 20 mg/kg, po pretreated for 50 mins followed by HCl/EtOH challenge measured after 1 hr. More on the design: scale not given: the % may be the effect or the level left.
In experiment [2] the test system is Mus musculus. As to the kind of experiment: Gastroprotective activity in Swiss albino mouse assessed as reduction in HCl/EtOH-induced gastric lesions by measuring lesion index at 30 mg/kg, sc pretreated followed by HCl/EtOH challenge measured after 1 hr (reference value: 38.8 +/- 1.6 millimeter).
Experiment [3] deals with Mus musculus. Briefly: Gastroprotective activity in Swiss albino mouse assessed as reduction in HCl/EtOH-induced gastric lesions by measuring lesion index at 10 mg/kg, sc pretreated followed by HCl/EtOH challenge measured after 1 hr (reference value: 38.8 +/- 1.6 millimeter).
In experiment [4] the test system is Mus musculus. As to the kind of experiment: Gastroprotective activity in Swiss albino mouse assessed as reduction in HCl/EtOH-induced gastric lesions by measuring lesion index at 100 mg/kg, po pretreated for 50 mins followed by HCl/EtOH challenge measured after 1 hr (reference value: 38.8 +/- 1.6 millimeter).
Experiment [5] relates to Mus musculus. Briefly: Gastroprotective activity in Swiss albino mouse assessed as reduction in HCl/EtOH-induced gastric lesions by measuring lesion index at 20 mg/kg, po pretreated for 50 mins followed by HCl/EtOH challenge measured after 1 hr (reference value: 38.8 +/- 1.6 millimeter).
The test system of experiment [6] is Mus musculus. As to the kind of experiment: Gastroprotective activity in Swiss albino mouse assessed as reduction in HCl/EtOH-induced gastric lesions by measuring lesion index at 20 mg/kg, po pretreated for 50 mins followed by HCl/EtOH challenge measured after 1 hr in presence of vanilloid receptor antagonist ruthenium red (reference value: 38.8 +/- 1.6 millimeter).

The subject of experiment [7] is Mus musculus. As to the kind of experiment: Gastroprotective activity in Swiss albino mouse assessed as reduction in HCl/EtOH-induced gastric lesions by measuring lesion index at 20 mg/kg, po pretreated for 50 mins followed by HCl/EtOH challenge measured after 1 hr in presence of NO synthase inhibitor NG-nitro-L-arginine methyl ester (reference value: 38.8 +/- 1.6 millimeter).

The test system of experiment [8] is Mus musculus. Briefly: Gastroprotective activity in Swiss albino mouse assessed as reduction in HCl/EtOH-induced gastric lesions by measuring lesion index at 20 mg/kg, po pretreated for 50 mins followed by HCl/EtOH challenge measured after 1 hr in presence of PG synthesis inhibitor indomethacin (reference value: 38.8 +/- 1.6 millimeter).
The test system of experiment [9] is Mus musculus. As to the kind of experiment: Gastroprotective activity in Swiss albino mouse assessed as reduction in HCl/EtOH-induced gastric lesions by measuring lesion index at 20 mg/kg, po pretreated for 50 mins followed by HCl/EtOH challenge measured after 1 hr in presence of sulfhydryl blocker N-ethylmaleimide (reference value: 38.8 +/- 1.6 millimeter).
Experiment [10] concerns Mus musculus. As to the kind of experiment: Gastroprotective activity in Swiss albino mouse assessed as reduction in HCl/EtOH-induced gastric lesions by measuring lesion index at 70 mg/kg, ip pretreated followed by HCl/EtOH challenge measured after 1 hr (reference value: 38.8 +/- 1.6 millimeter).

The text below walks through data of ChEMBL document CHEMBL3867465, “Gastroprotective activity of synthetic coumarins: Role of endogenous prostaglandins, nitric oxide, non-protein sulfhydryls and vanilloid receptors” (2016).

In the case of `Cc1c(OCC(F)(F)F)ccnc1C[S+]([O-])c1nc2ccccc2[nH]1` (stereo not drawn) [LANSOPRAZOLE], the Activity in the experiment on Mus musculus [1] worked out at 74%.
Still for that read-out and setting: under `O=C(O)c1cc2ccc(O)cc2oc1=O` stands 60%; under `CCOC(=O)c1cc2cccc(O)c2oc1=O`, 15%.
Still for that read-out and setting: under `O=c1cc(CN2CCN(CCO)CC2)c2ccc(O)cc2o1` stands 65%.
Still for that read-out and setting: the same measure for `CC(=O)c1cc2cccc(O)c2oc1=O`: 41%.
As for `COc1ccc2c(c1)c(CC(=O)O)c(C)n2C(=O)c1ccc(Cl)cc1` [INDOMETHACIN], the Activity in the experiment on Mus musculus [2] was 41.1 mm.
Regarding `O=c1cc(CCl)c2ccc(O)cc2o1`, in the experiment on Mus musculus [1], the Activity was 57%.
Take `O=C(Oc1ccccc1)c1cc2ccc(O)cc2oc1=O`: the Activity with Mus musculus [1] was 63%.
On the same count and under the same terms, under `O=C(O)Cc1cc(=O)oc2cc(O)ccc12` stands 68%.
On to `CCN1C(=O)C=CC1=O` [N-ETHYLMALEIMIDE], for which the Activity in the experiment with Mus musculus [3] was 40.1 mm.
For the compound `O=c1ccc2cc(O)c(O)cc2o1` [ESCULETIN], the Activity in the experiment with Mus musculus [1] turned out to be 17%.
Still for that read-out and setting: under `CC(=O)c1cc2ccc(O)cc2oc1=O` stands 15%; under `CNCc1cc(=O)oc2cc(O)ccc12`, 49%; under `CCOC(=O)c1cc2cccc(OC)c2oc1=O`, 0%.
As for `CC1(C)[C@@H](OC(=O)CCC(=O)O)CC[C@]2(C)[C@H]3C(=O)C=C4[C@@H]5C[C@@](C)(C(=O)O)CC[C@]5(C)CC[C@@]4(C)[C@]3(C)CC[C@@H]12` [CARBENOXOLONE], the Activity with Mus musculus [4] is given as 13.1 mm.
On to `CC(=O)c1cc2ccccc2oc1=O` [3-ACETYLCOUMARIN], for which, in the experiment with Mus musculus [1], the Activity was found to be 66%.
Same read-out and setting: under `CCOC(=O)c1cc2ccccc2oc1=O` stands 35%; under `O=c1cc(CCl)c2c(O)cc(O)cc2o1`, 42%; under `Cc1cc(=O)oc2cc(O)cc(O)c12` [5,7-DIHYDROXY-4-METHYLCOUMARIN], 45%.
Consider `O=c1cc(CN2CCOCC2)c2ccc(O)cc2o1` [OXAZORONE], for which the Activity in the experiment on Mus musculus [5] was 10.3 mm; in the experiment on Mus musculus [1], 75%; with Mus musculus [6], 14.4 mm; with Mus musculus [7] it was 34.7 mm; with Mus musculus [8], 13.6 mm; in the experiment with Mus musculus [9], 28.8 mm.
Turning to `COc1cc2ccc(=O)oc2cc1O` [SCOPOLETIN], in the experiment on Mus musculus [1], the Activity was determined as 61%.
With `COC(=O)[C@@H](N)CCCNC(=N)N[N+](=O)[O-]` [L-NAME], the Activity in the experiment on Mus musculus [10] was 35.7 mm.
`Cc1cc(=O)oc2cc(O)ccc12` [HYMECROMONE]: the Activity with Mus musculus [1] came to 31%.
